Source: patent US9822136B2, “Chemical inhibitors of sebocyte function” (priority 2016, dated 2017)
“Also recorded” adds a separate entry of the source.

Legend:
cloned hTRPM8 channel = target: T1, cloned hTRPM8 channel (Homo sapiens, UniProt Q7Z2W7); assay: TRPM8 activation, FLIPR calcium assay in CHO cells; format: cell-based; details: for Relative Potency to I-menthol: TRPM8 EC50 relative to I-menthol
T1 construct: host or cells: CHO cells
Experimental: The in vitro effects of test articles were first evaluated on cloned hTRPM8 channel. […] The test cells were Chinese Hamster Ovary (CHO) cells stably transfected with human TRPM8 cDNAs. […] Substances were evaluated at 8 concentrations (0.03 to 300 μM) with n=4 replicates per determination. For Fluorescence Imaging Plate Reader ([…]″) assay, cells were plated in 384-well black wall, flat clear-bottom microtiter plates (Type: BD Biocoat Poly-D-Lysine Multiwell Cell Culture Plate) at approximately 30,000 cells per well. Cells were incubated at 37° C. overnight to reach a near confluent monolayer appropriate for use in a fluorescence assay. The test procedure was to remove the growth media and to add 40 μL of HBPS containing Fluo-8 for 30 minutes at 37° C. 10 μL of test compound, vehicle, or control solutions in HBPS were then added to each well and read for 4 min using a Fluo-8 calcium kit and the […]″ instrument (Molecular Devices, Sunnyvale, California). […] J. Neurosci.
Concentration-response data were analysed via the FLIPR Control software that is supplied with the FLIPR System (MDS-AT) and fitted to a Hill equation of the following form: Response=Base+(Max−Base)/1+(xhalf/x)^rate, where: “Base” is the response at low concentrations of test compound; “Max” is the maximum response at high concentrations; “xhalf” is the EC50 (the concentration of test compound producing half-maximal activation); and “rate” is the Hill coefficient. Nonlinear least squares fits were made assuming a simple one-to-one binding model.

sebocytes [1] = assay: 3H-thymidine incorporation into sebocytes; format: cell-based, human; details: for activity at 10 µM: Homo sapiens, 3 h, uptake into sebocytes, NS = not significant
Experimental: (§1) The activities of 1-7 and 1-8 on an immortalized sebocyte cell line were examined in the laboratory of Prof Im Myung using methods previously described [Im et al. Epigallocatechin-3-gallate suppresses IGF-I-induced lipogenesis and cytokine expression in SZ95 sebocytes. J. Invest. Dermatol. 132, 2700-8 (2012)]. Proliferation of the sebocytes was measured using the MTT assay, by examination of micrographs of the cells in culture, and ^3H-thymidine incorporation. The effects of the test agents on lipogenesis were further studied by Oil Red O staining and analysis of the lipid composition of the cells. Studies were also conducted on signaling pathways for lipogenesis [PPAR and SREBP-1, Trivedi et al. Peroxisome proliferator-activated receptors increase human sebum production. J. Invest. Dermatol. 126, 2002-9 (2006)].
(§2) 1-7 and 1-8 are sensory cooling agents on the skin and activators [agonists] of the TRPM8 ion channel protein. […] The indicators used for direct comparison were sebocyte viability measured in the MTT assay and then the ^3H-thymidine incorporation assay.

zygomatic/forehead skin = assay: Cooling sensation after application to zygomatic/forehead skin; format: in vivo, human; details: for Sensory Quality / Duration / Onset: 20 mg/mL in distilled water; for Duration: offset minus onset; for Onset: time to reach 2 units of coolness
Experimental: When certain Dapa compounds are applied to the zygomatic and forehead skin, sensations of coolness/cold are felt and can be graded in intensity [Wei. 1-Di-isopropyl-phosphinoyl-alkanes as topical agents for the treatment of sensory discomfort. US 2015/0164924]. For example, one can rate the sensation as 0, 1, 2, or 3 with: 0 as no change; 1 as slight coolness, or cold; 2 as clear-cut signal of coolness or cold; and 3 as strong cooling or cold. The intervals for recording are 5 to 15 minutes, until at least two successive zeroes are obtained. The onset of drug action is taken as the time to reach 2 units of coolness intensity. The active compounds here, e.g, 1-7 produce cooling with 1 min after application. The duration of Dapa-compound action is defined as the offset time minus the onset time. The offset of drug action is defined here as the time when coolness intensity drops below 2, after previously surpassing 2 units.
Test compounds were applied to the skin of the forehead and zygomatic using cotton gauze (0.4 g, rectangular, 50 mm×60 mm; from CS-being, Daisan Cotton, Japan). The test compounds were used at a concentration of 20 mg/mL in distilled water. From the data shown above, it can be seen that, among these compounds, 1-7 and 1-8 evoked cool/cold on zygomatic/forehead skin.

sebocytes [2] = assay: Sebocyte viability, MTT assay; format: cell-based, human; details: for Activity relative to 1-8 in the MTT sebocyte assay: FIG. 4; for Sebocyte cell viability as % of controls (FIG. 4): at 0.10 μM
Experimental: as §1
The MTT assay is a colorimetric assay for cell viability. MTT [3-(4,5-dimethylthiazol-2-yl)-2-5-diphenyltetrazolium bromide], a yellow tetra-azole dye, is reduced to purple formazan in living cells by NADPH-dependent oxidoreductase enzymes. When the number of viable cells decreases the amount of enzymatic activity and purple color decreases and this can be measured with a spectrophotometer.
as §2

sebocytes [3] = assay: IGF-1 stimulated lipogenesis in sebocytes (Oil Red O, thin-layer and gas chromatography of lipids); format: cell-based, human; details: IGF-1 stimulated sebocytes
Experimental: as §1, with “132, 2700-8 (2012)].” left out, “Dermatol.” for “Dermatol. 126, 2002-9 (2006)].”
J. Invest. Dermatol. […] Oil Red 0 [Sudan Red 5B] is a diazo dye used for staining neutral triglycerides and lipids on cells.

human sebocytes = assay: Inhibition of sebocyte function in cultured human sebocytes (assay not specified); format: cell-based
Experimental: as §1, §2

[4] = tested on: forehead skin of human subjects; assay: Sebum secretion of forehead skin (Sebumeter); format: in vivo; details: 20 mg/mL on forehead, FIG. 2
Experimental: Sebum is an oily substance secreted by the sebaceous gland. These glands, attached to hair follicles, are abundant on the face and scalp. Increased secretion of sebum, for example during teenage years, and associated with androgen stimulation is associated with acne. […] Sebum secretion was measured here using a Sebumeter®, a standardized instrument based on a mat tape brought into contact with the skin, and then grease spot photometry [CK Electronic, Cologne, Germany].
In nine human subjects the baseline secretion of sebum was 188±19 μg/cm^2. […] This pharmacological effect has not been previously observed with Dapa-compounds such as 1-7. This was a new and unexpected observation.

T1 sequence (Q7Z2W7 whole entry): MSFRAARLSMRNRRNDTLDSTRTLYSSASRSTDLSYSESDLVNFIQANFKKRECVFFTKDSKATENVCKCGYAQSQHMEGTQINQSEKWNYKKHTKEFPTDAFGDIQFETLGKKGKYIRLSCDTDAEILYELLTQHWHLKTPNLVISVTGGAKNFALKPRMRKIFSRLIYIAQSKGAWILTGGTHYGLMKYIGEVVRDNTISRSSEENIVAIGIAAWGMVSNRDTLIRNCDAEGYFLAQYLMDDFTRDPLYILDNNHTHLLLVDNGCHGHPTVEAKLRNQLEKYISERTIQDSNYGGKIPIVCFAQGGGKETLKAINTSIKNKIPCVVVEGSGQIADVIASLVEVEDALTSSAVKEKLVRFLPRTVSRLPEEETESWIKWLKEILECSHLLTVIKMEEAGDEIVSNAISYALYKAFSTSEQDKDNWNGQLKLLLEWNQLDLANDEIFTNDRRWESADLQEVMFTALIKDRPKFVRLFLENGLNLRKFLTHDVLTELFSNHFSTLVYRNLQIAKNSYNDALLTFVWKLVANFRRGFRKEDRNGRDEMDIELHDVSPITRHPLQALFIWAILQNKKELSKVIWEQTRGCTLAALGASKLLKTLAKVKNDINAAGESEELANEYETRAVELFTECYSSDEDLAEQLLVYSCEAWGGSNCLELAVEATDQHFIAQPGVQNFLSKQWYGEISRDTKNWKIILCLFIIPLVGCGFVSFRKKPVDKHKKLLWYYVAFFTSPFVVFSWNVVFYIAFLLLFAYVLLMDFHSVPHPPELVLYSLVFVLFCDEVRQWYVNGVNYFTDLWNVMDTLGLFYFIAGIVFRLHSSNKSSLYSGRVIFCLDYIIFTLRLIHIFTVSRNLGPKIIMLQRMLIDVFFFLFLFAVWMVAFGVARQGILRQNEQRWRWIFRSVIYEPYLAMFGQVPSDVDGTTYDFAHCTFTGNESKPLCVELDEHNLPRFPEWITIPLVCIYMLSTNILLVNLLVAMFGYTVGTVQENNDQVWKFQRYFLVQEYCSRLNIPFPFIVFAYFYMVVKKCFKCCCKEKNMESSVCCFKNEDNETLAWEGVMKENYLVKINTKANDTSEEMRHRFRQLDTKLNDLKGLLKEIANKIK

Compound	Relative Potency to I-menthol (cloned hTRPM8 channel)	activity at 10 µM (sebocytes [1]) [%]	Sensory Quality (zygomatic/forehead skin)	Duration (zygomatic/forehead skin) [h]	Onset (zygomatic/forehead skin) [min]	Activity on sebocyte viability (structure-activity summary of Table 6) (sebocytes [2])	further results
CCCCCCCCCP(=O)(C(C)C)C(C)C [Code 1-9, 1-diisopropylphosphorylnonane]	4.0	≥ 85	cool	2.0	~2	active	
CCCCCCCP(=O)(C(C)CC)C(C)CC (centres unmarked) [Code 2-7, 1-disec-butylphosphorylheptane]	3.4	≥ 85	cold	2.4	~2	absence of activities	
CCCCCP(=O)(C(C)C)C(C)C [Code 1-5, 1-diisopropylphosphorylpentane]	0.7		dynamic	0.5	~1		
CCCCCCCCP(=O)(C(C)CC)C(C)CC (centres unmarked) [Code 2-8, 1-disec-butylphosphoryloctane]	2.9	≥ 90	cold	5.6	5	more activity than 2-6 or 2-7	
CCCCCCCCCCP(=O)(C(C)C)C(C)C [Code 1-10, 1-diisopropylphosphoryldecane]		≥ 100					Levels / production of squalene (thin layer chromatography, FIG. 5) (sebocytes [3]): lowers; Activity on TRPM8 (cloned hTRPM8 channel): low potency; Activity relative to 1-8 in the MTT sebocyte assay (sebocytes [2]): 10,000 x; Sebocyte cell viability as % of controls (FIG. 4) (sebocytes [2]): strongly inhibited
CC1=C(/C=C/C(C)=C/C=C/C(C)=C\C(=O)O)C(C)(C)CCC1 [cis-retinoic acid, reference compound]							IGF-1 increased lipids, gel staining (FIG. 5) (sebocytes [3]): inhibited
CCCCCCP(=O)(C(C)CC)C(C)CC (centres unmarked) [Code 2-6, 1-disec-butylphosphorylhexane]	4.7	≥ 100	cold	1.5	~2	absence of activities	
CCCCCCCP(=O)(C(C)C)C(C)C [Code 1-7, 1-diisopropylphosphorylheptane]	5.4	≥ 100	dynamic-icy	3.2	~1		Onset of cooling after application (zygomatic/forehead skin): ≤ 1 min; Duration of localized cooling and refreshing sensations (zygomatic/forehead skin; forehead skin, 20 mg/mL, 0.08 to 0.15 mL): several hours; Inhibition of sebocyte function (human sebocytes; 0.1mM): not seen; Sebocyte cell viability as % of controls (FIG. 3) (sebocytes [2]; concentrations in mM, 1-8 at 1 mM): did not inhibit; Sebum secretion after topical application [4]: significantly decreased
CCCCCP(=O)(C(C)CC)C(C)CC (centres unmarked) [Code 2-5, 1-disec-butylphosphorylpentane]	2.2	≥ 98	cool	1.1	~1		
CCCCCCP(=O)(C(C)C)C(C)C [Code 1-6, 1-diisopropylphosphorylhexane]	1.6		dynamic	1.3	~1		
CCCCP(=O)(C(C)CC)C(C)CC (centres unmarked) [Code 2-4, 1-disec-butylphosphorylbutane]	0.3		cool	0.3	~1		
CCCCCCCCCCCCP(=O)(C(C)C)C(C)C [Code 1-12, 1-diisopropylphosphoryldodecane]		~40					Levels / production of squalene (thin layer chromatography, FIG. 5) (sebocytes [3]): effective; also recorded: lowers; Activity on TRPM8 (cloned hTRPM8 channel): low potency; also recorded: very low activity; Inhibition of 3H-thymidine incorporation into sebocytes (sebocytes [1]): clearly inhibited; Concentration at which fully effective (human sebocytes; sebocytes in culture): 0.01 µM; Activity relative to 1-8 in the MTT sebocyte assay (sebocytes [2]): 10,000 x; Sebocyte cell viability as % of controls (FIG. 4) (sebocytes [2]): strongly inhibited
CC1=C(/C=C/C(C)=C/C=C/C(C)=C/C(=O)O)C(C)(C)CCC1 [trans-retinoic acid, reference compound]							IGF-1 increased lipids, gel staining (FIG. 5) (sebocytes [3]): inhibited
